Test results taken from patent US20210330698A1, “METHODS AND COMPOSITIONS FOR INHIBITING ENVELOPED VIRUSES USING LOW MOLECULAR WEIGHT HYDROPHOBICALLY MODIFIED POLYMERS” (Johnson & Johnson Consumer Inc., priority 2020, published 2021).

How the values were obtained:
Type in all cases: cell-based
HIV-1IIIB = assay: Time of compound addition in HeLa-CD4-LTR-β-Gal cells; conditions: time of compound addition relative to virus addition
Protocol: HeLa-CD4-LTR-β-Gal cells are seeded at a density of 1×10^4 cells/well in a volume of 100 μL 24 hours prior to assay initiation and incubated at 37° C./5% CO2. Following the incubation compound is serially diluted at the specified concentrations and were added to the cells in triplicate at timepoints of −30 minutes, 0, 1, 2, 4, 8 and 24 hours pre- or post-virus addition in a volume of 100 μL. HIV-1IIIB is added to the cells at a pre-determined titer. The cultures are incubated at 37° C./5% CO2 for 48 hours at which time efficacy is evaluated using a chemiluminescent substrate (Gal-Screen™, ThermoFisher Scientific, Waltham, Mass.) and toxicity (three timepoints of 0, 4 and 24 hours) evaluated using the tetrazolium dye XTT.

Ca Ski (Cervical) cells = assay: Toxicity to Ca Ski cells (XTT); conditions: exposure 24 h
Protocol: (§1) TC50 values for the test materials are derived by measuring the reduction of the tetrazolium dye XTT (2,3-bis(2-methoxy-4-nitro-5-sulfophenyl)-5-[(phenylamino)carbonyl]-2H-tetrazolium hydroxide). XTT in metabolically active cells is metabolized by the mitochondrial enzyme Nicotinamide adenine dinucleotide phosphate oxidase (“NADPH”) to a soluble formazan product. XTT solution is prepared daily as a stock of 1 mg/ml in RPMI-1640 without additives. Phenazine methosulfate (PMS) solution is prepared at 0.15 mg/ml in DPBS and stored in the dark at −20° C. XTT/PMS stock is prepared immediately before use by adding 40 μL of PMS per ml of XTT solution. […] of XTT/PMS is added to each well of the plate and the plate incubated for 4 hours at 37° C. The 4 hour incubation has been empirically determined to be within the linear response range for XTT dye reduction with the indicated numbers of cells for each assay. The plates are sealed and inverted several times to mix the soluble formazan product and the plate is read at 450 nm (650 nm reference wavelength) with a Molecular Devices SpectraMax Plus 384 96 well plate format spectrophotometer.
(§2) Twenty-four hours prior to compound exposure, 100 μL of cells are plated at 5×10^4 cells per well in a flat-bottomed plate and. […] The plates are incubated at 5% CO2/37° C. for an additional 24 hours and then evaluated using XTT as described above.

[1] = test system: Vaginal Ectocervical Tissues; assay: Toxicity to vaginal ectocervical tissue (MTT); conditions: exposure 24 h
Protocol: On the day of the assay, the MatTek assay media is warmed and 900 μL added to each well of a 6-well plate. One hour prior to dosing, the epivaginal tissues are removed from the refrigerator and placed in the 6-well plate and the plate then incubated for 1 hour at 37° C./5% CO2. Following the incubation the media is removed from the 6 well plate and 900 μL of fresh media added. One-hundred microliters (100 μL) of each concentration is added in duplicate to the epivaginal tissue. The plate is then incubated for an additional 24 hours at 37° C./5% CO2. One hour prior to the end of the incubation, 1 mg/mL (3-(4,5-Dimethylthiazol-2-yl)-2,5-diphenyltetrazolium bromide (hereinafter, “MTT” available from Invitrogen of Carlsbad, Calif.) in DMEM is prepared. Fifteen minutes prior to the end of the incubation 300 μL of MTT is added to each well of a 24-well plate. Following the incubation, residual liquid is removed from the tissue and then gently rinsed two times with PBS. Each epivaginal tissue insert is then transferred to an individual well of the 24-well plate containing the MTT solution. The plate is then incubated for 3 hours at 37° C./5% CO2. […] The optical density of each sample is determined at 570 nm with a background of 650 nm. The % viability is determined to be 100×[OD(sample)/OD(negative control)]. […]

ME180 (Cervical) cells = assay: Toxicity to ME180 cells (XTT); conditions: exposure 24 h
Protocol: as §1, §2

Compound	Time in which Antiviral Activity is Lost (HIV-1IIIB) [h]	toxic concentration (Ca Ski (Cervical) cells) [µg/mL]	toxic concentration [1] [µg/mL]	toxic concentration (ME180 (Cervical) cells) [µg/mL]
O=C1Nc2ccc(Cl)cc2[C@@](C#CC2CC2)(C(F)(F)F)O1 [Efavirenz]	4 to 8			
Nonoxynol-9 [Embodiment N-9]		36.31	100 to 1000	41.83
